# Assay results published in publication PMC8000079, “Targeting GABAC Receptors Improves Post-Stroke Motor Recovery” (Brain Sciences, 2021).
# What was measured:
# Assay type in all cases: cell-based
# ρ2 GABAC receptor [1] = molecular target: T1, ρ2 GABAC receptor (Homo sapiens, UniProt P28476); assay: two-electrode voltage clamp in Xenopus oocytes, agonist dose-response
# T1 construct: gene GABRR2; human recombinant ρ2 GABAC receptors expressed in Xenopus oocytes
# ρ2 GABAC receptor [2] = molecular target: T1, ρ2 GABAC receptor; assay: two-electrode voltage clamp in Xenopus oocytes, shift of GABA concentration-response curve; conditions: read-out: Kd
# α5β2γ2 GABAA receptor = molecular target: T2, α5β2γ2 GABAA receptor (Homo sapiens, UniProt P31644+P47870); assay: two-electrode voltage clamp in Xenopus oocytes, % inhibition of GABA ([…]) current at […]
# T2 construct: gene GABRA5; α5β2γ2 receptors expressed in Xenopus oocytes; with β2 and γ2 GABAA subunits
# T2 sequence (P47870 26-512): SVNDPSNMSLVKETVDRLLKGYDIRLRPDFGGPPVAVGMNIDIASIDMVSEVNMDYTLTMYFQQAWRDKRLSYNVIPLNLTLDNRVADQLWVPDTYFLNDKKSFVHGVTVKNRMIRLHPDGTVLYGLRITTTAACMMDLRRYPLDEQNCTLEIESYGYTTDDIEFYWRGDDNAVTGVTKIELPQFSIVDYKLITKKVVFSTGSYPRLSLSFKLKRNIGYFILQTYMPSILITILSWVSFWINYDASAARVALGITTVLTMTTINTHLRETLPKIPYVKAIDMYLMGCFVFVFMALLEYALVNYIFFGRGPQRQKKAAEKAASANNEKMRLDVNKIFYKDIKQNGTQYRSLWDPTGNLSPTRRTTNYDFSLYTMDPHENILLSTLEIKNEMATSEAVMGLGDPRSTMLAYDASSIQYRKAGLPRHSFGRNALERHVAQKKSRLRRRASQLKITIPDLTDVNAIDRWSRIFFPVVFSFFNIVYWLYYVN
# T2 sequence (P18507 40-475, further chain): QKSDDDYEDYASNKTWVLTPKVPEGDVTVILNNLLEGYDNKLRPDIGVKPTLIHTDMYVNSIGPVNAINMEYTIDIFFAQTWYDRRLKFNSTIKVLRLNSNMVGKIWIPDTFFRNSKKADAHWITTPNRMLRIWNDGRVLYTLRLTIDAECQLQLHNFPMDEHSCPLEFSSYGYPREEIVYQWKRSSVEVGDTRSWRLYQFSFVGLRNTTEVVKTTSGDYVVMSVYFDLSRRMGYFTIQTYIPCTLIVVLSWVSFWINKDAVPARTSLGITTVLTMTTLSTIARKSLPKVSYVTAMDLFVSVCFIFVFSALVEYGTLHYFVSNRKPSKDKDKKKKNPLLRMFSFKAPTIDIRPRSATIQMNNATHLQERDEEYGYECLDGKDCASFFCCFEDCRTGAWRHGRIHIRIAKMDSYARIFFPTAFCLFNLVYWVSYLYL
# T2 sequence (P31644 32-462): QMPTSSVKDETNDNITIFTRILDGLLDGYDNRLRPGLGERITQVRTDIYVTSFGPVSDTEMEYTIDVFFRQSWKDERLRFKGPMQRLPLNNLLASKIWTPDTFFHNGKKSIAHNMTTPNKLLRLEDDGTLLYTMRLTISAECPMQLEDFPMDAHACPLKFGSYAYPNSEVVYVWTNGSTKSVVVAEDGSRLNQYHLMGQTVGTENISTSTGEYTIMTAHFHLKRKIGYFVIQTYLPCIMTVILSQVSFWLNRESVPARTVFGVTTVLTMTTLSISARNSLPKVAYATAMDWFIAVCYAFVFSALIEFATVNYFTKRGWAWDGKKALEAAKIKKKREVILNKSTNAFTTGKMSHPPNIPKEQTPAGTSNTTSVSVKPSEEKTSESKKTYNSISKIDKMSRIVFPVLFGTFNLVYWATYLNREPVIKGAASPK
# T1 sequence (P28476 21-465): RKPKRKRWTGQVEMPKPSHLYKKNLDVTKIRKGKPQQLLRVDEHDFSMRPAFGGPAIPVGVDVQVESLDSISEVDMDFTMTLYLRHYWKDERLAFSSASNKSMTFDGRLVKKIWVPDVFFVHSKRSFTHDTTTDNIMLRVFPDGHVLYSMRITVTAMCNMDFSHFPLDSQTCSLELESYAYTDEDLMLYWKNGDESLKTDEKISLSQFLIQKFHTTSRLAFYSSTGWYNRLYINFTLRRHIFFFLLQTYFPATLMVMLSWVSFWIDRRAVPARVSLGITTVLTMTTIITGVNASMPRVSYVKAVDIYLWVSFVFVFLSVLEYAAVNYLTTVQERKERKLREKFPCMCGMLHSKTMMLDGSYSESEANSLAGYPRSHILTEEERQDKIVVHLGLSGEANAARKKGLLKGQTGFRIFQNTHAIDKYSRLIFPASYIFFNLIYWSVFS
Structure (SMILES),EC50 (ρ2 GABAC receptor [1]),Kb (ρ2 GABAC receptor [2]),inhibition at 100 µM (α5β2γ2 GABAA receptor)
"NCCCC(=O)O [GABA, γ-aminobutyric acid]",~ 1 µM,–,–
"CCCCP(=O)(O)C1=CC[C@@H](N)C1 [(R)-4-ACPBPA, (R)-4-amino-cyclopent-1-enyl butylphosphinic acid]",–,6 µM,36 ± 2%
"CCCCP(=O)(O)C1=CC[C@H](N)C1 [(S)-4-ACPBPA, (S)-4-amino-cyclopent-1-enyl butylphosphinic acid]",–,10.5 µM,37 ± 1.5%
